Values of other authors as cited in patent US12318470B2, “Agent for dyeing keratinuos material, comprising aminosilicone, a chromophoric compound and an addition product of C1-C6 alkylene oxide(s) to the esters of fatty acids and aromatic alcohols” (Henkel AG & Co. KGaA, priority 2020, dated 2025).

How the values were obtained:
[1] = 25° C.
[2] = 5% solution in water

Compound | solubility in water [1] | other results
O=S(=O)([O-])c1ccc(N=Nc2c(O)ccc3ccccc23)cc1.[Na+] [Acid Orange 7, sodium salt of 4-[(2-hydroxy-1-naphthyl)azo]benzene sulphonate] | more than 7 g/L | 
Nc1cc(S(=O)(=O)[O-])cc2cc(S(=O)(=O)[O-])c(N=Nc3ccccc3)c(O)c12.[Na+].[Na+] [Acid Red 33, diantrium salt of 5-amino-4-hydroxy-3-(phenylazo)-naphthalene-2,7-disulphonate] | 2500 µg/mL | 
O=C([O-])c1c(Cl)c(Cl)c(Cl)c(Cl)c1-c1c2c(Br)cc(=O)c(Br)c-2oc2c(Br)c(O)cc(Br)c12.O=C([O-])c1c(Cl)c(Cl)c(Cl)c(Cl)c1-c1c2c(Br)cc(=O)c(Br)c-2oc2c(Br)c(O)cc(Br)c12.[Na+].[Na+] [Acid Red 92, disodium salt of 3,4,5,6-tetrachloro-2-(1,4,5,8-tetrabromo-6-hydroxy-3-oxoxanthen-9-yl)benzoic acid] | greater than 10 g/L | 
O=C([O-])C1=NN(c2ccc(S(=O)(=O)[O-])cc2)C(=O)C1N=Nc1ccc(S(=O)(=O)[O-])cc1.[Na+].[Na+].[Na+] (centres unmarked) [Acid Yellow 23, trisodium salt of 4,5-dihydro-5-oxo-1-(4-sulfophenyl)-4-((4-sulfophenyl)azo)-1H-pyrazole-3-carboxylic acid] |  | solubility in water (in words) [1]: readily soluble
O=P([O-])(O)O.[K+] [Potassium dihydrogen phosphate] |  | pH value of solution in water [2]: 4.4
